Target: T1, Mer (Homo sapiens, UniProt Q12866)
T1 sequence (Q12866 21-999): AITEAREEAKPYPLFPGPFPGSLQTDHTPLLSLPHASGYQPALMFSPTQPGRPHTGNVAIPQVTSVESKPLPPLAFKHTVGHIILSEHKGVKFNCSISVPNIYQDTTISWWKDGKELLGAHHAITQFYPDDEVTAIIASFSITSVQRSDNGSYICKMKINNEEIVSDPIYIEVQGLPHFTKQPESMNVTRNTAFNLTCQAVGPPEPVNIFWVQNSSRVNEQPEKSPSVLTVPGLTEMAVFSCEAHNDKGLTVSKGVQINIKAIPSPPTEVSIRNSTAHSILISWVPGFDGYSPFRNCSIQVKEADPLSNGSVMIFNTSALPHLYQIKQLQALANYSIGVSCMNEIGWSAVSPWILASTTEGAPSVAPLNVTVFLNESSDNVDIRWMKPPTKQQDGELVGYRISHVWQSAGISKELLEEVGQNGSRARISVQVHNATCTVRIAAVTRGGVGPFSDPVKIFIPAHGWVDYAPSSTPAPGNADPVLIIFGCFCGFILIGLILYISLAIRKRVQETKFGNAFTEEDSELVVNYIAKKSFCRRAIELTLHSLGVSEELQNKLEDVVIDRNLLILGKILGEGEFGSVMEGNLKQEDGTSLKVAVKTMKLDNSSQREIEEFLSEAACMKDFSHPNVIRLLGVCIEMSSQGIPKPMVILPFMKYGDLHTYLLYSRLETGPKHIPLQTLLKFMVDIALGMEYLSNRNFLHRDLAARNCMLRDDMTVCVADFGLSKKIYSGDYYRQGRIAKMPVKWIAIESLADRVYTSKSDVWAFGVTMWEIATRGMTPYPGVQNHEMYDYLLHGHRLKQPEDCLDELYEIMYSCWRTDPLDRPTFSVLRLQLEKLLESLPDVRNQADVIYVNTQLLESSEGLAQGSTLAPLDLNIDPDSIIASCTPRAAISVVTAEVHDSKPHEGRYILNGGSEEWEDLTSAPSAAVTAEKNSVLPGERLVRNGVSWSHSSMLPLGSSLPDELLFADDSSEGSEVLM
Experiment: Mer IC50
Format: biochemical
Details: Table 2, compounds of General Procedure E

Compound: N[C@H]1CCCCNc2nc(ncc2C(=O)NCC2CCOCC2)NCCCCCCNC1=O [UNC2705A]
- IC50: < 0.01 µM
